{
  "source": "paper PMC12670405",
  "about": "“Second-Generation AURKA-Targeting PROTACs: Structural Optimization toward in Vivo Degradation in Neuroblastoma” (Journal of Medicinal Chemistry, 2025)",
  "key": {"[1]": {"test_system": "ZNF286A", "experiment": "LC-MS/MS proteome profiling", "type": "cell-based, Homo sapiens", "conditions": "SK5527 vs DMSO (24h)", "procedure": "(§1) Analysis of the mass spectrometry data was performed in DiaNN (version 1.9). Precursor false discovery rate was set at 1%. Spectra were searched against the Homo sapiens protein sequences in the Uniprot database (database release version of 2024_01), containing 20,597 sequences (www.uniprot.org) and the imbedded protein contaminant list. Enzyme specificity was set as C-terminal to arginine and lysine, also allowing cleavage at proline bonds with a maximum of 2 missed cleavages. Variable modifications were set to oxidation of methionine residues and acetylation of protein N-termini while fixed modification was set to carbamidomethylation of cystein residues. Matching between runs was enabled. Mainly default settings were used, except for the addition of a 400-900 m/z precursor mass range filter and MS1 and MS2 mass tolerance was set to 10 and 20 ppm respectively.\n(§2) Further data analysis of the results was performed with an in-house script in the R programming language.\n(§3) Protein expression matrices were prepared as follows: the DIA-NN main report output table was filtered at a precursor and protein library q-value cut-off of 1 % and only proteins identified by at least one proteotypic peptide were retained. After pivoting into a wide format, iBAQ intensity columns were then added to the matrix using the DIAgui’s R package get_IBAQ function. PG MaxLFQ intensities were log2 transformed and replicate samples were grouped. Proteins with less than 3 valid values in at least one group were removed and missing values were imputed from a normal distribution centered around the detection limit (package DEP) leading to a list of 7,759 quantified proteins in the experiment, used for further data analysis. […]\n(§4) Statistical significance for differential regulation was set to a false discovery rate (FDR) of < 0.05 and |log2FC| = 2."}, "[2]": {"test_system": "BAZ2A", "experiment": "LC-MS/MS proteome profiling", "type": "cell-based, Homo sapiens", "conditions": "SK5527 vs DMSO (24h)", "procedure": "as §1, §2, §3, §4"}, "[3]": {"test_system": "MTERF3", "experiment": "LC-MS/MS proteome profiling", "type": "cell-based, Homo sapiens", "conditions": "SK5527 vs DMSO (24h)", "procedure": "as §1, §2, §3, §4"}, "[4]": {"test_system": "FAM204A", "experiment": "LC-MS/MS proteome profiling", "type": "cell-based, Homo sapiens", "conditions": "SK5527 vs DMSO (24h)", "procedure": "as §1, §2, §3, §4"}, "[5]": {"test_system": "ZNF770", "experiment": "LC-MS/MS proteome profiling", "type": "cell-based, Homo sapiens", "conditions": "SK5527 vs DMSO (24h)", "procedure": "as §1, §2, §3, §4"}, "[6]": {"test_system": "ZNF417", "experiment": "LC-MS/MS proteome profiling", "type": "cell-based, Homo sapiens", "conditions": "SK5527 vs DMSO (24h)", "procedure": "as §1, §2, §3, §4"}, "[7]": {"test_system": "ETV3", "experiment": "LC-MS/MS proteome profiling", "type": "cell-based, Homo sapiens", "conditions": "SK5527 vs DMSO (24h)", "procedure": "as §1, §2, §3, §4"}, "[8]": {"test_system": "ESCO2", "experiment": "LC-MS/MS proteome profiling", "type": "cell-based, Homo sapiens", "conditions": "SK5527 vs DMSO (24h)", "procedure": "as §1, §2, §3, §4"}, "[9]": {"molecular_target": "403 nonmutant kinases", "experiment": "KINOMEscan scanMAX kinome-wide binding scan, interactions mapped", "conditions": "for Interactions mapped: total = 403 non-mutant kinases, threshold < 35% of control", "procedure": "(§5) The kinome-wide binding assay was performed by Eurofins Discovery using the scanMAX screening platform. More information can be found on the Eurofins Discovery Web site."}, "[10]": {"molecular_target": "T1, AURKA (Homo sapiens, UniProt O14965)", "T1 sequence (O14965 1-403)": "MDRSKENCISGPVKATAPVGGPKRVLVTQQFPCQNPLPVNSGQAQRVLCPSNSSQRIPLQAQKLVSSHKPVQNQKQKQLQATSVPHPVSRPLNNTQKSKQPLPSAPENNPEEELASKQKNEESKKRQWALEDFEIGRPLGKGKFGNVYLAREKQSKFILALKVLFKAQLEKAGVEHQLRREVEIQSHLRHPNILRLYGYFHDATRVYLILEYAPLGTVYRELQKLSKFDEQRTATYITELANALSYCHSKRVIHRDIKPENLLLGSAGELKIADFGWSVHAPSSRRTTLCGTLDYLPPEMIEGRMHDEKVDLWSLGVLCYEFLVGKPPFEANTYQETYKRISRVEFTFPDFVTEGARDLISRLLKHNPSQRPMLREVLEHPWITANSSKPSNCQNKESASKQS", "experiment": "KINOMEscan scanMAX", "type": "binding", "set-up": "purchased Eurofins Discovery", "conditions": "read-out: Percent Control", "procedure": "as §5"}},
  "data": [
    {"smiles": "Cc1cc(Nc2ccc(F)c(CC3(C(=O)N4CCC(F)(CN5CCN(c6ccc(N7CCC(=O)NC7=O)cn6)CC5)CC4)CCN(Cc4cccc(Cl)c4F)CC3)n2)n[nH]1", "note": "[SK5527]", "values": [
      {"measurement": "logFC ZNF286A", "setting": "[1]", "value": -2.95},
      {"measurement": "logFC BAZ2A", "setting": "[2]", "value": 2.83},
      {"measurement": "logFC MTERF3", "setting": "[3]", "value": -2.09},
      {"measurement": "logFC FAM204A", "setting": "[4]", "value": 2.65},
      {"measurement": "logFC ZNF770", "setting": "[5]", "value": -4},
      {"measurement": "logFC ZNF417", "setting": "[6]", "value": -2.12},
      {"measurement": "logFC ETV3", "setting": "[7]", "value": -2.36},
      {"measurement": "logFC ESCO2", "setting": "[8]", "value": -2.1},
      {"measurement": "kinases significantly engaged (in words)", "setting": "[9]; 100 nM", "value": "only AURKA and TrKA"},
      {"measurement": "Interactions mapped", "setting": "[9]; 100nM", "value": 2},
      {"measurement": "nonmutant kinases bound in addition to AURKA, out of 403", "setting": "[9]; 1000 nM", "value": 9},
      {"measurement": "Interactions mapped", "setting": "[9]; 1000nM", "value": 10},
      {"measurement": "remaining binding at 0.1 µM", "setting": "[10]; 100 nM", "value": 0.8, "unit": "%"},
      {"measurement": "remaining binding at 1 µM", "setting": "[10]; 1000 nM", "value": 0, "unit": "%"}
    ]}
  ]
}
